In patent US8030547B2, “Gene coding for acetolactate synthase” (priority 2002, dated 2011):
Where “and” joins values, the source holds several entries; their conditions need not be identical. Identical values can stand only once.

Assays:
[1] = target: T1, GST fusion R172S mutant ALS protein (Oryza sativa subsp. japonica, UniProt Q6K2E8, R172S); experiment: Herbicide sensitivity of ALS protein expressed in E. coli (crude enzyme solution), R172S; format: biochemical, rice (Oryza sativa var. Kinmaze); details: for RS ratio: R172S mutant vs wild type
T1 construct: an expression vector having the full-length wild type ALS cDNA incorporated into the Eco RI site of pGEX-2T; made in house; host or cells: E. coli JM109, pGEX-2T(ALS R172S mutant); crude supernatant
T1 sequence (Q6K2E8 44-644 R172S): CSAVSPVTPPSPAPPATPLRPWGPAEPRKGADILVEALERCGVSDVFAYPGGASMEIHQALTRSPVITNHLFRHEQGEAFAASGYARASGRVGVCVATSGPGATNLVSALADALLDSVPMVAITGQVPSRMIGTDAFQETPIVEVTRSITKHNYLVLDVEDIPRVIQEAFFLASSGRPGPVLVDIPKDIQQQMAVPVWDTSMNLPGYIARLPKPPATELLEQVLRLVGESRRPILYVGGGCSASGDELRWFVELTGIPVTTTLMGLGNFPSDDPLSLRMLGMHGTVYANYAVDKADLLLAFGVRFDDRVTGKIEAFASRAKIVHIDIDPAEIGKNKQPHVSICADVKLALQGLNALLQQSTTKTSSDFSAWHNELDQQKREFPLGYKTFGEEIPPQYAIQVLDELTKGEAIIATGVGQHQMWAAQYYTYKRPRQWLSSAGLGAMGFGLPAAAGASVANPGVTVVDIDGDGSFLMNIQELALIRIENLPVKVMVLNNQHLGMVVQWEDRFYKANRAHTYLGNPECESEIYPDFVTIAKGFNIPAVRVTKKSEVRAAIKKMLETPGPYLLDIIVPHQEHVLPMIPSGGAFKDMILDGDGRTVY
Protocol: (§1) ALS activity resulting from the mutant ALS protein contained in the eluted fractions apportioned into each test tube for apportioning was measured as follows. A reaction solution to be used in a measurement reaction was prepared by mixing an eluted fraction to be measured with a solution comprising 20 mM sodium pyruvate, 0.5 mM TPP, 0.5 mM MgCl2, 10 μM FAD and 20 mM potassium phosphate buffer (pH 7.5). One ml of this reaction solution was used. After the eluted fraction to be measured was added, the measurement reaction was performed at 30° C. for 40 to 60 minutes. Then, the reaction was stopped by addition of 0.1 ml of 6N sulfuric acid (or 0.25 N sodium hydroxide).
(§2) After the reaction was stopped, the reaction solution was incubated at 60° C. for 10 minutes, thereby converting acetolactate contained in the reaction solution to acetoin.
(§3) Then, to quantify acetoin contained in the reaction solution, 1 ml of 0.5% (w/v) creatine and 1 ml of 5% (w/v) α-naphthol dissolved in 2.5 N sodium hydroxide was added to the reaction solution, followed by incubation at 37° C. for 10 minutes. Acetoin was then quantified by color comparison of the absorbance (at 525 nm) of the reaction solution, thereby evaluating ALS activity. In addition, since the reaction solution contained a small amount of sodium pyruvate, reaction time 0 was used as control.
(§4) E. coli transformed with pGEX-2T(ALS-wild) constructed in Example 3(5), E. coli transformed with pGEX-2T(ALS-W548L mutant) constructed in Example 5, E. coli transformed with pGEX-2T(ALS-S627I mutant) constructed in Example 5, E. coli transformed with pGEX-2T(ALS P171H mutant) constructed in Example 6, E. coli transformed with pGEX-2T(ALS R172S mutant) constructed in Example 6, E. coli transformed with pGEX-2T(ALS P171H, R172S mutant) constructed in Example 7, E. coli transformed with pGEX-2T(ALS-P171H, W548L mutant) constructed in Example 8, E. coli transformed with pGEX-2T(ALS-P171H, S627I mutant) constructed in Example 8, and E. coli transformed with pGEX-2T(ALS-P171H, W548L, S627I mutant) constructed in Example 9 were respectively shake-cultured (pre-culture) at 27° C. in 2 ml of LB liquid medium containing ampicillin. These types of E. coli were respectively cultured in 250 ml of LB liquid medium containing ampicillin using 1 ml of the pre-culture solution. After culturing overnight, 1 mM IPTG was added to the media, and then culturing was performed for a further 3 to 4 hours, so that the expression of GST fusion protein was induced. In addition, the cells were stored at −80° C. after washing.
(§5) Preparation and purification of ALS from E. coli were performed by the following method. First, the pellet of the transformant E. coli stored at −80° C. was suspended in ALS extraction buffer (potassium phosphate buffer (pH 7.5) containing 30% glycerol and 0.5 mM MgCl2). Specifically, 2.5 ml of the buffer was added to the pellet obtained from 50 ml of the culture solution. The suspension was subjected to ultrasonication (Heat Systems-Ultrasonics, Sonicator W-225R, micro chip, output control 8, interval of approximately 1 second, twice (40 seconds each)), and subjected to centrifugation at 15000×g, 4° C. for 20 minutes, thereby obtaining the supernatant as a crude enzyme solution.
(§6) Herbicide sensitivity of the wild type ALS protein and that of mutant ALS protein were examined using the 9 types of crude enzyme solutions obtained in Example 10. Herbicide sensitivity test was performed according to procedures almost the same as those in Example 2. However, in this example, reaction temperature was 37° C., reaction time was 30 minutes, and 10 mM valine was added to the reaction solution to inhibit ALS activity derived from E. coli. Further, three types of herbicides, bispyribac-sodium, pyrithiobac-sodium, and pyriminobac, were used as PC herbicides; chlorsulfuron was used as a sulfonylurea herbicide; and imazaquin was used as an imidazolinon herbicide. […]

[2] = target: T2, GST fusion P171H/S627I mutant ALS protein (Oryza sativa subsp. japonica, UniProt Q6K2E8, P171H/S627I); experiment: Herbicide sensitivity of ALS protein expressed in E. coli (crude enzyme solution), P171H/S627I; format: biochemical, rice (Oryza sativa var. Kinmaze); details: for RS ratio/ predicted RS ratio / Predicted RS ratio: P171H/S627I mutant; for RS ratio: P171H/S627I mutant vs wild type; for Predicted RS ratio: product of RS ratios of the 1-point mutants
T2 construct: made in house; host or cells: E. coli, pGEX-2T(ALS-P171H, S627I mutant); crude supernatant
T2 sequence (Q6K2E8 44-644 P171H/S627I): as the sequence (Q6K2E8 44-644 R172S) above, with P128H, S129R, S584I counted along it
Protocol: as §1, §2, §3, §4, §5, §6

COc1cc(OC)nc(Oc2cccc(Oc3nc(OC)cc(OC)n3)c2C(=O)O)n1 [bispyribac-sodium]
IC50 [1]: 0.0062 µM | RS ratio [1]: 0.98 | IC50 [2]: 23 µM | RS ratio/ predicted RS ratio [2]: 10 | RS ratio [2]: 3700 | Predicted RS ratio [2]: 360

COc1nc(C)nc(NC(=O)NS(=O)(=O)c2ccccc2Cl)n1 [chlorsulfuron]
IC50 [1]: 0.011 µM | RS ratio [1]: 0.85 | IC50 [2]: 9.9 µM | RS ratio/ predicted RS ratio [2]: 3.8 | RS ratio [2]: 760 | Predicted RS ratio [2]: 200

CC(C)C1(C)N=C(c2nc3ccccc3cc2C(=O)O)NC1=O (stereo not drawn) [imazaquin]
IC50 [1]: 2.3 µM | RS ratio [1]: 0.98 and 1 | IC50 [2]: 71 µM | RS ratio/ predicted RS ratio [2]: 3.2 | RS ratio [2]: 32 | Predicted RS ratio [2]: 10
